Laboratory results as given in patent EP4178959B1, “NITROGEN HETEROCYCLIC CYTOKININ DERIVATIVES, COMPOSITIONS CONTAINING THESE DERIVATIVES AND USE THEREOF” (Univerzita Palackého v Olomouci, priority 2020, dated 2022).

Legend:
Arabidopsis thaliana = experiment: Effect on the root proliferation of Arabidopsis thaliana; type: in vivo, Arabidopsis thaliana (ecotype Columbia); details: for Concentration with highest activity: number of lateral roots; for Activity (%) [10^-8 mol.l^-1 Kin = 100%]: number of lateral roots (% of control), at concentration with highest activity
Procedure: Arabidopsis thaliana seeds (ecotype Columbia) were sterilized with 70% ethanol and 0.1% Triton X-100 and then washed with 70% ethanol containing 0.01% Triton X-100. Then the seeds were transferred to vertical square petri dishes (11 seeds per dish) on a solid medium consisting of MS (2.15 g/l), MES (0.5 g/l), sucrose (1 g/l), agar (11 g/l), buffered to pH 5.8, and various concentrations of tested compounds. The compounds were dissolved in DMSO, thus 0.05% DMSO was used as a control solution. After incubation for 3 days in darkness at 4°C, the seeds were germinated and grown in an environmental chamber (fluorescence light intensity 150 µE m^-2 s^-1, humidity 55%, 16 h day/8 h night, 22°C). […] The number of lateral roots was scored under a stereomicroscope. […] In addition, compounds with tetrahydropyranyl protection at N9 slightly increase the number of emerged lateral roots (Fig 3C). […] Table 6: […]

excised wheat leaf tips = experiment: Senescence inhibition on winter wheat leaf segments (chlorophyll retention); design: species or system Triticum aestivum cv. Hereward; details: for Concentration with highest activity: retention of chlorophyll; for Activity (%) [10^-4mol.l^-1 KTHP = 100%] / Emax: retention of chlorophyll in excised wheat leaf tips, 96 h in the dark, at concentration with highest activity; for Emax: Triticum aestivum, foliar, read-out: Activity (%) [10^-4mol.l^-1 KTHP = 100%]
Procedure: Seeds of winter wheat, Triticum aestivum cv. Hereward, were washed under running water for 24 hours and then sown on vermiculite soaked with the Knop's solution. They were placed in the grow chamber at 25 °C with a 16/8 h light period at 50 μmol.m^-2.s^-1. After 7 days, the first leaf was fully developed and the second leaf had started to grow. A tip section of the first leaf, approximately 35 mm long, was removed from 5 seedlings and trimmed slightly to a combined weight of 100 mg. The basal ends of the five leaf tips were placed in the wells of a microtiter polystyrene plate containing 150 μl of the solution of the tested compound each. The entire plate was inserted into a plastic box lined with paper tissues soaked with distilled water to prevent leaf sections from drying out. […] The absorbance of the extract was recorded at 665 nm. In addition, chlorophyll extracts from fresh leaves and leaf tips incubated in deionised water were measured. From the obtained data, the concetration with the highest activity was selected for each compound tested. Relative activity of the compound at this concentration was calculated (Table 7). […] The values shown are means of five replicates and the whole experiment was repeated twice. The compounds to be tested were dissolved in dimethylsulfoxide (DMSO) and the solution brought up to 10^-3 M with distilled water. […] The compounds listed in Table 7 can be divided into 2 groups. The first group contains "classical 6,9-disubstituted purines (KTHP as a control)" known in prior art. […] Table 9: […]

[1] = Calcein AM cytotoxicity assay, NIH3T3 cells; details: mouse; for CC50 at 72 h: nih3t3 cells
Procedure: (§1) All compound concentrations were examined in duplicates. […] Zero cytotoxicity is a basic prerequisite for the use of these substances in cosmetical applications. To assess the antitumor activity, the toxicity of new derivatives on panels containing cell lines of different histogenic and species origin was tested (Table 5). […] The compounds listed in Table 5 can be divided into 2 groups.
(§2) The first group contains "classical cytokinins" represented by 6-substituted purines (their effects are already known). The second group includes novel 2-fluoro-N6-substituted-9-(2-oxacycloalkyl)-9H-purine-6-amine derivatives. […] Low cytotoxicity (high IC50 value) of the compounds is the basic prerequisite for cosmetic and medical applications. […] Table 5: Cytotoxicity of novel compounds for different normal cell lines tested / IC50 (µmol/L)

Zea mays seedlings = experiment: Effect on development of Zea mays seedlings (hydroponic); type: in vivo, Zea mays cv. CELLUX; details: for Root dry mass (%) [4 x 10^-8 mol.l^-1 Kin = 100%] / Shoot dry mass (%) [10^-6 mol.l^-1 Kin = 100%]: at concentration with highest activity
Procedure: Maize seeds (Zea mays cv. CELLUX) were imbibed in tap water and germinated on a wetted filter paper. After 3 days, the germinated seedlings were transferred to aerated hydroponic tanks filled with Hoagland's nutrient solution. The plants were grown in an environmental chamber with 16 h light period (250 μE m^-2 s^-1) at 27°C and 8 h dark period at 20°C. Tested compounds diluted in DMSO were added to nutrient solution immediately when seedlings were nested in the tanks or after two additional days of cultivation. Control plants were grown in parallel with addition of corresponding amount of DMSO (up to 0.01%). Root and leaf tissues of ten plants were harvested at different time points after the application of the compounds, immediately frozen in liquid nitrogen and used for cytokinin content and transcript level analysis. Length of primary root and the first leaf were determined with ruler on sets of twelve plants, each cultivated in the independent tank (for every cytokinin application repeated ten times). Dry mass of root system and the aerial part was determined after cutting off the kernel and desiccation in dryer for two days at 60°C. […] Fig. 4) and up to 1 micromolar concentration when more seedlings were in the solution (approx. 50 seedlings per 1 liter; Fig. 5). […] Table 7: […]

[2] = Calcein AM cytotoxicity assay, B10A.4 cells; details: mouse; for CC50 at 72 h: b10a.4 macrophages
Procedure: as §1, §2

[3] = Calcein AM cytotoxicity assay, BJ cells; details: human; for CC50 at 72 h: bj fibroblasts
Procedure: as §1, §2

[4] = Cytotoxicity IC50, B10A.4, first column headed B10A.4

SMILES | root elongation and branching (in words) (Arabidopsis thaliana; already in micromolar concentration) | Concentration with highest activity (excised wheat leaf tips) | Activity (%) [10^-4mol.l^-1 KTHP = 100%] (excised wheat leaf tips) | CC50 at 72 h [1] [µM] | root elongation and lateral root proliferation (in words) (Zea mays seedlings; up to 1 µM concentration) | CC50 at 72 h [2, 4] [µM] | CC50 at 72 h ([2]; Cytotoxicity IC50, B10A.4, second column headed B10A.4) [µM] | CC50 at 72 h [3] [µM] | Emax (excised wheat leaf tips) [%] | IC50 at 72 h [1] [µM] | Root dry mass (%) [4 x 10^-8 mol.l^-1 Kin = 100%] (Zea mays seedlings) | Shoot dry mass (%) [10^-6 mol.l^-1 Kin = 100%] (Zea mays seedlings) | Concentration with highest activity (Zea mays seedlings; root dry mass) | Concentration with highest activity (Zea mays seedlings; shoot dry mass) | IC50 at 72 h [2, 4] [µM] | Concentration with highest activity (Arabidopsis thaliana) | Activity (%) [10^-8 mol.l^-1 Kin = 100%] (Arabidopsis thaliana) | IC50 at 72 h [3] [µM]
COc1cccc(CNc2ncnc3nc[nH]c23)c1 [6-(3-methoxybenzylamino)purine, reference compound] | significantly inhibits root elongation and branching |  |  |  |  |  |  |  |  |  |  |  |  |  |  |  |  | 
CC(C)=CCNc1nc(F)nc2c1ncn2C1CCCO1 (stereo not drawn) [Compound 13] |  | 10^-4 mol.l^-1 | 109.8 (± 13) % | > 167 | does not inhibit root elongation and lateral root proliferation | > 167 | > 167 | > 167 |  |  |  |  |  |  |  |  |  | 
Oc1cccc(CNc2nc(F)nc3c2ncn3C2CCCO2)c1 (stereo not drawn) [Compound 15, 2-Fluoro-6-[(3-hydroxybenzyl)amino]-9-(tetrahydrofuran-2-yl)-9H-purine] |  |  |  |  |  |  |  |  | 133 | > 167 | 201.4 (± 22) % | 124.3 (± 8) % | 10^-7 mol.1^-1 | 10^-6 mol.1^-1 | > 167 | 10^-5 mol.l^-1 | 24.8 (± 4) % | > 167
COc1ccccc1CNc1nc(F)nc2c1ncn2C1CCCO1 (stereo not drawn) [Compound 17, 2-Fluoro-6-[(2-methoxybenzyl)amino]-9-(tetrahydrofuran-2-yl)-9H-purine] |  |  |  |  |  |  |  |  | 104 | > 167 | 241.5 (± 19) % | 139.8 (± 7) % | 10^-7 mol.1^-1 | 10^-6 mol.1^-1 | > 167 | 10^-5 mol.l^-1 | 30.7 (± 7) % | > 167
COc1cccc(CNc2nc(F)nc3c2ncn3C2CCCO2)c1 (stereo not drawn) [Compound 18] |  | 10^-4 mol.l^-1 | 175.8 (± 10) % | > 167 |  | > 167 |  | > 167 |  |  | 240.6 (± 22) % | 148.2 (± 8) % | 10^-7 mol.1^-1 | 10^-6 mol.1^-1 |  | 10^-5 mol.l^-1 | 28.6 (± 2) % | 
Oc1cc(Cl)cc(CNc2nc(F)nc3c2ncn3C2CCCO2)c1 (stereo not drawn) [Compound 27] |  |  |  |  |  |  |  |  |  |  | 194.5 (± 18) % | 116.3 (± 7) % | 10^-7 mol.1^-1 | 10^-6 mol.1^-1 |  | 10^-5 mol.l^-1 | 45.7 (± 6) % | 
Oc1cc(F)cc(CNc2nc(F)nc3c2ncn3C2CCCO2)c1 (stereo not drawn) [Compound 28] |  |  |  |  |  |  |  |  |  |  | 190.2 (± 20) % | 111.8 (± 6) % | 10^-7 mol.1^-1 | 10^-6 mol.1^-1 |  | 10^-5 mol.l^-1 | 49.3 (± 9) % | 
Fc1nc(NCc2ccco2)c2ncn(C3CCCCO3)c2n1 (stereo not drawn) [Compound 57, 2-Fluoro-6-furfurylamino-9-(tetrahydro-2H-pyran-2-yl)-9H-purine] |  |  |  |  |  |  |  |  | 111 | 138 | 183.9 (± 24) % | 112.8 (± 11) % | 10^-7 mol.1^-1 | 10^-6 mol.1^-1 | 149 | 10^-6 mol.l^-1 | 68.4 (± 8) % | 132
Fc1nc(NCc2ccccc2)c2ncn(C3CCCCO3)c2n1 (stereo not drawn) [Compound 64, 2-Fluoro-6-benzylamino-9-(tetrahydro-2H-pyran-2-yl)-9H-purine] |  |  |  |  |  |  |  |  | 110 | 128 | 168.9 (± 16) % | 108.9 (± 8) % | 10^-7 mol.1^-1 | 10^-6 mol.1^-1 | 121 | 10^-6 mol.l^-1 | 61.2 (± 3) % | 124
COc1ccc(CNc2nc(F)nc3c2ncn3C2CCCCO2)cc1 (stereo not drawn) [Compound 68, 2-Fluoro-6-[(4-methoxybenzyl)amino]-9-(tetrahydro-2H-pyran-2-yl)-9H-purine] |  |  |  |  |  |  |  |  | 155 | > 167 |  | 118.6 (± 9) % |  | 10^-6 mol.1^-1 | > 167 |  |  | > 167
C/C(=C/CNc1nc(F)nc2c1ncn2C1CCCCO1)CO (stereo not drawn) [Compound 71] |  | 10^-4 mol.l^-1 | 113 (± 18) % | > 167 |  | > 167 |  | > 167 |  |  | 172.5 (± 14) % | 111.1 (± 6) % | 10^-7 mol.1^-1 | 10^-6 mol.1^-1 |  | 10^-6 mol.l^-1 | 71.8 (± 7) % | 
CC(CO)CCNc1nc(F)nc2c1ncn2C1CCCCO1 (stereo not drawn) [Compound 72] |  | 10^-4 mol.l^-1 | 103 (± 7) % | > 167 |  | > 167 |  | > 167 |  |  | 161.3 (± 21) % | 104.8 (± 7) % | 10^-7 mol.1^-1 | 10^-6 mol.1^-1 |  | 10^-6 mol.l^-1 | 68.5 (± 2) % | 
